{
  "source": "patent US20110300116A1",
  "about": "“Method for Generating a Recombinant Clonal Cell Line and Novel Reagents for Use in the Method” (CELLAURA TECHNOLOGIES LTD, priority 2007, published 2011)",
  "target": "T1, human dopamine D1 receptor (Homo sapiens, UniProt P21728)",
  "T1 construct": "expressed in transfected cells; host or cells: CHO cells",
  "T1 sequence (P21728 whole entry)": "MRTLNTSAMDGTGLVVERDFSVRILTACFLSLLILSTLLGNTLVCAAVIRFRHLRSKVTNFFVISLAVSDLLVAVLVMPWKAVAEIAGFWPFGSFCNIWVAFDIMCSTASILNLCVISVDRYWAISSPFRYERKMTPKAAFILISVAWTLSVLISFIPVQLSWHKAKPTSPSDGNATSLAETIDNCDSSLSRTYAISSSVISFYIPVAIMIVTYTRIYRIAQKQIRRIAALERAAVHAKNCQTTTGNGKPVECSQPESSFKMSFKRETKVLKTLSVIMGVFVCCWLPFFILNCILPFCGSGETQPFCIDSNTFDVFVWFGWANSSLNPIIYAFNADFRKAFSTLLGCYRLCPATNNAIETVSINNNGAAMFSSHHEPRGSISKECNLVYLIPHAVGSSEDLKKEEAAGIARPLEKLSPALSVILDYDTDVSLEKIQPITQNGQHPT",
  "experiment": "Confocal imaging of fluorescent ligand binding to a mixed population cell line expressing the human dopamine D1 receptor",
  "format": "cell-based",
  "conditions": "ligand 10 nM; human D1-receptor expressing CHO mixed population before antibiotic resistance selection and prior to FACS sorting; confocal microscopy, FIG. 3",
  "protocol": "In FIG. 3 is shown a confocal microscope image of N-{4-aza-3,7-dioxo-7-[4-(8-methoxy-3-methyl-2,3,4,5-tetrahydro-1H-3-benzazepine-1-yl)phenylamino]heptyl}-6-{2-[4-(2-(4,4-difluoro-4,4a-dihydro-5-(thiophen-2-yl)-4-bora-3a,4a-diaza-s-indacene-3-yl)vinyl) ligand (10 nM) binding to human dopamine D1-receptor expressing CHO “cell line” before antibiotic resistance selection and prior to FACS™ sorting. Red images (light grey) show cells binding the fluorescent D1-receptor antagonist and the blue images (dark grey) show the Hoechst staining of the cellular nuclei. It is clear that only about 20% of the cells are expressing the human dopamine D1 receptor.\nA mixed population cell line expressing the human dopamine D1 receptor was screened with novel fluorescent dopamine D1 receptor antagonist N-{4-aza-3,7-dioxo-7-[4-(8-methoxy-3-methyl-2,3,4,5-tetrahydro-1H-3-benzazepine-1-yl)phenylamino]heptyl}-6-{2-[4-(2-(4,4-difluoro-4,4a-dihydro-5-(thiophen-2-yl)-4-bora-3a,4a-diaza-s-indacene-3-yl)vinyl), prepared as in Example 1. […] Using FACS cell sorting, these cells are sorted and separated into populations of cells expressing low, medium or high levels of the dopamine D1 receptor. […] A cell sorter such as the Beckman-Coulter Altra can then be used to put individual cells into single wells of a 96 well plate.",
  "data": [
    {"molecule": "CN1CCc2ccc(O)cc2C(c2ccc(NC(=O)CCNC(=O)CCNC(=O)CCCCCNC(=O)COc3ccc(/C=C/C4=[N+]5C(=Cc6ccc(-c7cccs7)n6[B-]5(F)F)C=C4)cc3)cc2)C1", "note": "(stereo not shown)", "values": [
      {"measurement": "cells that label with the fluorescent D1-receptor antagonist", "value": "about 20%"}
    ]}
  ]
}
